Experimental data from paper PMC11778240, “Synthesis and preclinical evaluation of tigilanol tiglate analogs as latency-reversing agents for the eradication of HIV” (Science Advances, 2025).

Legend:
interleukin-8 = experiment: IL-8 ELISA, A549 cells; assay type: cell-based, Human; details: 24 hours
Method: Because SUW402 and SUW431 are potent activators of NF-κB, we used an enzyme-linked immunosorbent assay to measure their ability to up-regulate inflammatory cytokine production (tumor necrosis factor–α and interleukin-8). We stimulated A549 cells with SUW402 and SUW431 at the same concentrations used in the NF-κB activation assay: 500 and 50 nM (figs. S1 and S2). […] At 500 or 50 nM, both SUW402 and SUW431 produced only modest levels of interleukin-8, a 15 to 25% increase relative to the DMSO negative control.
Enzyme Linked Immunosorbent Assay (ELISA) for SUW402 and SUW431 mediated IL-8 and […]
In efforts to replicate the conditions of the in vitro NF -κB assay, 5 x 10^4 A549 cells were plated per well on Corning® 96-well Clear Round Bottom TC-treated Microplates in 180 μl of pre-warmed DMEM (4.5 g/L glucose, 10% FBS, and 1% Pen-Strep-Glutamine (100 X, 50 mg/mL)).
Following incubation at 37 °C in 5% CO2 for approximately 24 hours to allow for cell adherence, 1.8 μl of either SUW402 or SUW431 were added in triplicate to their respective wells to achieve a final compound concentration of either 50 nM or 500 nM, the two concentrations tested in the NF-κB assay. 24 hours after compound addition, the microplate containing cells treated with compound was spun at 1800 rpm for 3 minutes to allow for pelleting of cells and other debris before 150 μL of cellular supernatant was aspirated and transferred to a new Corning® 96 -well Clear Round Bottom TC-treated Microplate. Note that if the supernatant is not meant to be immediately analyzed, the microplate containing cellular supernatant should be paraf ilm, wrapped, and stored at -80 °C. Careful attention should be paid to avoiding freeze-thaw cycles. To quantify cytokine secretion within samples, dilutions were performed using Assay Buffer A included in the LEGEND MAX™ Human IL-8 ELISA Kit (Cat # 431507) and LEGEND MAX™ Human TNF-α ELISA Kit (Cat # 430207), respectively.
Immediately before running the assay, reagents were allowed to come to room temperature and diluted. Note that if the supernatant is frozen, it should be removed at this time and allowed to thaw. The 1X Wash Buffer was prepared by diluting the 20X Wash Buf fer with Invitrogen™ UltraPure™ DNase/RNase-Free Distilled Water. The lyophilized human IL-8 and TNF-α standards were reconstituted by adding the appropriate volume of Assay Buffer A to prepare the 20 ng/mL standard stock solutions. The reconstituted stand ards were allowed to sit at room temperature for 20 minutes before being gently vortexed to ensure complete mixing. To generate a standard curve for each cytokine, 500 μL of a 1,000 pg/mL top standard was prepared after which six two -fold serial dilutions of the top standard were performed in 1.7 mL microcentrifuge tubes using Assay […]

tumor necrosis factor–α = experiment: TNF-α ELISA, A549 cells; assay type: cell-based, Human; details: for TNF-α (ELISA): 24 hours, lowest detectable limit 3.5 pg/ml
Method: The Anti-Human IL-8 pre-coated 96-well Strip Microplate and Anti-Human TNF-α pre-coated 96-well Strip Microplate were each washed 4 times by hand. With each wash, at least 300 μL of 1X Wash Buffer was added per well and aspirated, and any residual buffer was removed by blotting the plate on an absorbent paper towel. Following this wash cycle, 50 μL of Assay Buffer A was added to each well that would ultimately contain sample or standard. To rigorously ensure no cellular debris was left in the analyte, an ad ditional centrifugation step was performed (1800 rpm for 3 minutes) before transferring 50 μL of sample or standard dilutions to the appropriate wells.
Adhesive plate sealers were utilized to cover the plates, prevent contamination, and avoid sample evaporation after which each plate was placed on a cell shaker and allowed to shake at room temperature at 200 rpm for 2 hours. Following incubation, the contents of each plate were discarded and subsequently washed by hand 4 times with 1X Wash Buffer, as previo usly reported. […]

mast cell tumors = mast cell tumors in canines; cited from earlier work

Compound | IL-8 (ELISA) (interleukin-8; 50 nM) [pg/mL] | IL-8 (ELISA) (interleukin-8; 500 nM) [pg/mL] | TNF-α (ELISA) (tumor necrosis factor–α; 50 nM) [pg/mL] | TNF-α (ELISA) (tumor necrosis factor–α; 500 nM) [pg/mL] | tumor necrosis factor–α production in words (tumor necrosis factor–α; 500 and 50 nM) | cure rate (mast cell tumors) [%]
C/C=C(\C)C(=O)O[C@@H]1[C@@H](C)[C@@]2(O)[C@@H](C=C(CO)C[C@]3(O)C(=O)C(C)=C[C@@H]23)[C@@H]2C(C)(C)[C@]12OC(=O)[C@@H](C)CC [SUW402] | 3352 | 3106 | < 3.5 | < 3.5 | did not produce detectable levels of tumor necrosis factor–α at either concentration | –
C/C=C(\C)C(=O)O[C@@H]1[C@@H](C)[C@@]2(O)[C@H]([C@@H]3C(C)(C)[C@]13OC(=O)[C@@H](C)CC)[C@@H]1O[C@]1(CO)[C@@H](O)[C@]1(O)C(=O)C(C)=C[C@H]12 [EBC-46, Tigilanol tiglate] | – | – | – | – | – | ≤ 88
C/C=C(\C)C(=O)O[C@@H]1[C@@H](C)[C@@]2(O)[C@H]([C@@H]3C(C)(C)[C@]13OC(=O)Cc1cccc3ccccc13)[C@@H]1O[C@]1(CO)[C@@H](O)[C@]1(O)C(=O)C(C)=C[C@H]12 [SUW431] | 3369 | 3232 | 4.4 | 8.4 | – | –
